PubChem BioAssay (NCI)
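These data come from cells grown in 96-well plates and exposed to compound for 48 hours at five concentrations. Definition used: TGI = concentration required for complete inhibition of growth.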

How the values were obtained:
Test in all cases: DTP human tumour cell line panel, 48 h
[1] = test system: SNB-19 CNS
[2] = test system: SK-OV-3 ovarian
[3] = test system: UO-31 renal
[4] = test system: CAKI-1 renal
[5] = test system: 786-0 renal
[6] = test system: HCC-2998 colon
[7] = test system: HCT-15 colon
[8] = test system: SK-MEL-5 melanoma
[9] = test system: CCRF-CEM leukemia
[10] = test system: KM12 colon
[11] = test system: SR leukemia
[12] = test system: M14 melanoma
[13] = test system: OVCAR-4 ovarian
[14] = test system: HOP-92 NSCLC
[15] = test system: SF-295 CNS
[16] = test system: RXF 393 renal
[17] = test system: MCF7 breast
[18] = test system: BT-549 breast
[19] = test system: MDA-MB-231 breast

| Compound | TGI [1] | TGI [2] | TGI [3] | TGI [4] | TGI [5] | TGI [6] | TGI [7] | TGI [8] | TGI [9] | TGI [10] | TGI [11] | TGI [12] | TGI [13] | TGI [14] | TGI [15] | TGI [16] | TGI [17] | TGI [18] | TGI [19] |
| --- | --- | --- | --- | --- | --- | --- | --- | --- | --- | --- | --- | --- | --- | --- | --- | --- | --- | --- | --- |
| Cc1ccc(S(=O)(=O)c2c(N)c3nccn3c3nc4ccccc4nc23)cc1 | > 100 µM | > 100 µM | > 100 µM | > 100 µM | > 100 µM | > 100 µM | > 100 µM | > 100 µM | > 100 µM | > 100 µM | > 100 µM | > 100 µM | > 100 µM | > 100 µM | – | – | – | – | – |
| O=C1NC2OCC(O)C(O1)C2O (stereo not given) | > 100 µM | > 100 µM | > 100 µM | > 100 µM | > 100 µM | – | > 100 µM | > 100 µM | > 100 µM | > 100 µM | > 100 µM | > 100 µM | > 100 µM | > 100 µM | > 100 µM | > 100 µM | – | – | – |
| CC(=O)OCc1cccc(O)c1C(=O)CCC=C(C)C | > 100 µM | > 100 µM | > 100 µM | > 100 µM | > 100 µM | > 100 µM | > 100 µM | > 100 µM | > 100 µM | > 100 µM | > 100 µM | > 100 µM | > 100 µM | > 100 µM | > 100 µM | > 100 µM | > 100 µM | – | – |
| CC1=C2C(=O)C3[C@@H](CCC4=CC(=O)CC[C@@]43C)C2CC[C@]12O[C@@H]1C[C@H](C)CN[C@H]1[C@H]2C (stereo not given in full) | > 100 µM | > 100 µM | > 100 µM | > 100 µM | > 100 µM | > 100 µM | > 100 µM | > 100 µM | 40.1 µM | > 100 µM | 43.4 µM | > 100 µM | > 100 µM | > 100 µM | > 100 µM | > 100 µM | – | – | – |
| CCCCCCc1cc2cc(C(=O)Nc3ccccc3F)c(=N)oc2cc1O | 56.2 µM | 29.3 µM | 17.5 µM | 22.9 µM | 24.9 µM | 48.1 µM | 22.3 µM | 12.8 µM | 21.7 µM | 19.7 µM | 50.2 µM | 28.7 µM | 22.4 µM | – | 33 µM | – | 39.1 µM | 23.2 µM | – |
| Cc1cccc2nc3n(c12)C(=O)c1ccccc1-3 | > 100 µM | > 100 µM | > 100 µM | > 100 µM | > 100 µM | > 100 µM | > 100 µM | – | > 100 µM | > 100 µM | > 100 µM | – | > 100 µM | > 100 µM | > 100 µM | > 100 µM | > 100 µM | > 100 µM | – |
| Cc1ccc(S(=O)(=O)NC(=O)C2(Br)S(=O)(=O)OCCOS2(=O)=O)cc1 | > 100 µM | > 100 µM | > 100 µM | – | > 100 µM | > 100 µM | > 100 µM | > 100 µM | > 100 µM | – | > 100 µM | > 100 µM | > 100 µM | > 100 µM | – | > 100 µM | – | – | – |
| Cc1c(/C=N/NC(=O)c2ccccc2)c(=O)n(-c2ccccc2)n1C | > 100 µM | > 100 µM | > 100 µM | – | > 100 µM | > 100 µM | > 100 µM | – | > 100 µM | > 100 µM | > 100 µM | > 100 µM | > 100 µM | > 100 µM | > 100 µM | > 100 µM | – | – | – |
| COc1c(C(=O)/C(=N/Nc2ccccc2)C(C)=O)c(O)c(OC)c2occc12 | > 100 µM | > 100 µM | 86.3 µM | > 100 µM | > 100 µM | > 100 µM | > 100 µM | 31.7 µM | > 100 µM | > 100 µM | > 100 µM | > 100 µM | > 100 µM | 99.6 µM | > 100 µM | > 100 µM | > 100 µM | – | > 100 µM |
| Cc1ccc(C2(C)NC(=S)N(NC(N)=S)C2=S)cc1 (stereo not given) | > 100 µM | – | > 100 µM | – | > 100 µM | > 100 µM | > 100 µM | > 100 µM | > 100 µM | – | > 100 µM | > 100 µM | > 100 µM | – | > 100 µM | > 100 µM | – | – | – |
| C=C1C(=O)OC2C[C@H](C)C3CC(=O)C(C)=C3CC12 (stereo not given in full) | > 100 µM | > 100 µM | 26 µM | 18.2 µM | 26.1 µM | 29.2 µM | 25.9 µM | 33.3 µM | 15.7 µM | 33.3 µM | 22.3 µM | 27.4 µM | 30.3 µM | 24.1 µM | > 62.3 µM | 31.6 µM | – | – | – |
| CC(N)C(=O)c1ccc(O)cc1 (stereo not given) | > 100 µM | > 100 µM | > 100 µM | > 100 µM | > 100 µM | > 100 µM | > 100 µM | > 100 µM | > 100 µM | > 100 µM | – | > 100 µM | > 100 µM | > 100 µM | > 100 µM | > 100 µM | – | – | – |
| Cc1cc(=O)oc2c(CNC(C)C(=O)O)c(O)ccc12 (stereo not given) | > 100 µM | > 100 µM | > 100 µM | > 100 µM | > 100 µM | > 100 µM | > 100 µM | > 100 µM | > 100 µM | > 100 µM | > 100 µM | > 100 µM | > 100 µM | > 100 µM | > 100 µM | > 100 µM | > 100 µM | – | > 100 µM |
| CC(=O)c1ccc(N2CCN(c3c(O)c4c(c(O)c3Cl)C(=O)C=CC4=O)CC2)cc1 | 35.7 µM | – | 22.9 µM | 11.8 µM | 27.2 µM | 37.4 µM | > 100 µM | 20.3 µM | 2.07 µM | – | 8.33 µM | 6.76 µM | 10.8 µM | 5.13 µM | 33.9 µM | 9.44 µM | 2.8 µM | – | 5.5 µM |
| CCOC(=O)C1=C(OS(=O)(=O)C(F)(F)F)CCCC1 | > 100 µM | > 100 µM | > 100 µM | > 100 µM | > 100 µM | > 100 µM | > 100 µM | > 100 µM | > 100 µM | > 100 µM | > 100 µM | > 100 µM | > 100 µM | > 100 µM | > 100 µM | > 100 µM | > 100 µM | – | > 100 µM |
| OC(c1ccsc1)c1cc2ccccc2s1 (stereo not given) | > 10 µM | > 10 µM | > 10 µM | > 10 µM | > 10 µM | > 10 µM | > 10 µM | > 10 µM | > 10 µM | > 10 µM | > 10 µM | > 10 µM | > 10 µM | > 10 µM | > 10 µM | > 10 µM | > 10 µM | – | > 10 µM |
| COc1cc(COC(=O)N2CCCCC2C(=O)O)c([N+](=O)[O-])cc1OC (stereo not given) | > 100 µM | > 100 µM | > 100 µM | – | > 100 µM | > 100 µM | > 100 µM | > 100 µM | > 100 µM | > 100 µM | > 100 µM | > 100 µM | – | > 100 µM | > 100 µM | > 100 µM | > 100 µM | > 100 µM | – |
| CN(C)C1(C(=O)O)CC1 | > 100 µM | – | – | – | > 100 µM | > 100 µM | > 100 µM | > 100 µM | > 100 µM | – | > 100 µM | > 100 µM | > 100 µM | > 100 µM | > 100 µM | > 100 µM | > 100 µM | – | – |
| CSC(=NC1CC(n2cc(C)c(=O)[nH]c2=O)OC1CO)NC#N (stereo not given) | > 100 µM | > 100 µM | > 100 µM | > 100 µM | > 100 µM | > 100 µM | > 100 µM | > 100 µM | > 100 µM | > 100 µM | – | > 100 µM | > 100 µM | > 100 µM | > 100 µM | > 100 µM | > 100 µM | – | > 100 µM |
| Cc1nc2c(O)cccc2c(=O)[nH]1 | > 1000 µM | > 1000 µM | > 1000 µM | > 1000 µM | > 1000 µM | > 1000 µM | > 1000 µM | – | > 1000 µM | > 1000 µM | > 1000 µM | > 1000 µM | > 1000 µM | > 1000 µM | > 1000 µM | > 1000 µM | > 1000 µM | 634 µM | – |
| Nc1ncnc2c1ncn2[C@@H]1C[C@H]1CO | > 100 µM | – | > 100 µM | – | > 100 µM | > 100 µM | > 100 µM | – | > 100 µM | > 100 µM | > 100 µM | > 100 µM | – | – | > 100 µM | – | > 100 µM | – | > 100 µM |
| C=CC1(c2ccc3ccccc3c2)OCC(CC)(CC)CO1 | 36.3 µM | > 100 µM | 86.1 µM | – | 50.9 µM | 37.3 µM | 35.1 µM | 34 µM | 40.1 µM | 40.6 µM | – | 60.6 µM | > 100 µM | 52 µM | 65.2 µM | 36.2 µM | 56.2 µM | – | 33.9 µM |
| C=C[C@@]1(C)CC2CC[C@]3(C)C(C)=CC(=O)CC3[C@]2(C)CC1O (stereo not given in full) | > 100 µM | > 100 µM | > 100 µM | > 100 µM | > 100 µM | > 100 µM | > 100 µM | > 100 µM | > 100 µM | > 100 µM | > 100 µM | > 100 µM | > 100 µM | > 100 µM | > 100 µM | > 100 µM | > 100 µM | – | – |
